The source of these data is patent US9695197B2, “Glycosidase inhibitors and uses thereof” (Alectos Therapeutics Inc., priority 2012, dated 2017).

In general, Ki refers to a measure of affinity in units of concentration, obtained from inhibition or displacement. For orientation: EC50 means the concentration that produces a half-maximal response. Read a low EC50 as a more potent agent. As usually defined, the Papp is a coefficient for how fast a substance crosses the barrier.

SMILES strings stand for the structures.

In one data set the target is human O-GlcNAcase (Homo sapiens (Human), UniProt O60502). The data set is described as follows: Fluorescence-based assay for KI values for inhibition of O-GlcNAcase activity. The class given is biochemical. To be noted: purified human O-GlcNAcase 0.7 nM, 2 mM 4-methylumbelliferyl GlcNAc substrate, pH 7.0, Cheng-Prusoff; read-out: Fluorescence-based hOGA Ki.
human O-GlcNAcase, sequence (O60502 whole entry): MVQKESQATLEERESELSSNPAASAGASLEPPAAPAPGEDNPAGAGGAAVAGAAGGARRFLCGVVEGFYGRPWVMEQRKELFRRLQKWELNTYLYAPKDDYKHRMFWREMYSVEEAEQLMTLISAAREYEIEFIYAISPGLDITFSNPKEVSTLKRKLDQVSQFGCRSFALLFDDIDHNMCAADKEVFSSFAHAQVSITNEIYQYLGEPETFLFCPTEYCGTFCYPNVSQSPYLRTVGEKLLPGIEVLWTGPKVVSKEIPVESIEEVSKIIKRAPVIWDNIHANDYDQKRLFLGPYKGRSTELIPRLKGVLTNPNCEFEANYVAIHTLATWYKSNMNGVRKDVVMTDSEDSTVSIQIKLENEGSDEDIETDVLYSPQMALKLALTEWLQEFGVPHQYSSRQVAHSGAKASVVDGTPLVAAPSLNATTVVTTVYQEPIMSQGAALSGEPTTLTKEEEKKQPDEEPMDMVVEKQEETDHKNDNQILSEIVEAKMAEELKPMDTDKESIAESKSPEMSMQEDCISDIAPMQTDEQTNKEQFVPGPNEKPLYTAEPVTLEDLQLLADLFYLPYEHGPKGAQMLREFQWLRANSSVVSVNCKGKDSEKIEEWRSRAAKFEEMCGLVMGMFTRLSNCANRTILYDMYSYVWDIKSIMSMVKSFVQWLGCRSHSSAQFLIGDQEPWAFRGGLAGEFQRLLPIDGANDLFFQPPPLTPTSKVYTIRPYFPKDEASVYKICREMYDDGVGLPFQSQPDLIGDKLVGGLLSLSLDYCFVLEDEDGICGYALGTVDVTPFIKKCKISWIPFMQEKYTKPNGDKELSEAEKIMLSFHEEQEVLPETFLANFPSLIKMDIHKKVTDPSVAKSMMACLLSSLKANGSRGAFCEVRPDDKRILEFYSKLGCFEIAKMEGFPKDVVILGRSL
The next data set deals with O-GlcNAcase (Rattus norvegicus (Rat), UniProt Q8VIJ5). The data set is described as follows: Cell-based ELISA for cellular activity of compounds that inhibit O-GlcNAcase (O-GlcNAcylated protein detected with RL-2 antibody). To be noted: rat PC-12 cells, treated 24 h, O-GlcNAcylated protein by RL-2 ELISA.
O-GlcNAcase, sequence (Q8VIJ5 whole entry): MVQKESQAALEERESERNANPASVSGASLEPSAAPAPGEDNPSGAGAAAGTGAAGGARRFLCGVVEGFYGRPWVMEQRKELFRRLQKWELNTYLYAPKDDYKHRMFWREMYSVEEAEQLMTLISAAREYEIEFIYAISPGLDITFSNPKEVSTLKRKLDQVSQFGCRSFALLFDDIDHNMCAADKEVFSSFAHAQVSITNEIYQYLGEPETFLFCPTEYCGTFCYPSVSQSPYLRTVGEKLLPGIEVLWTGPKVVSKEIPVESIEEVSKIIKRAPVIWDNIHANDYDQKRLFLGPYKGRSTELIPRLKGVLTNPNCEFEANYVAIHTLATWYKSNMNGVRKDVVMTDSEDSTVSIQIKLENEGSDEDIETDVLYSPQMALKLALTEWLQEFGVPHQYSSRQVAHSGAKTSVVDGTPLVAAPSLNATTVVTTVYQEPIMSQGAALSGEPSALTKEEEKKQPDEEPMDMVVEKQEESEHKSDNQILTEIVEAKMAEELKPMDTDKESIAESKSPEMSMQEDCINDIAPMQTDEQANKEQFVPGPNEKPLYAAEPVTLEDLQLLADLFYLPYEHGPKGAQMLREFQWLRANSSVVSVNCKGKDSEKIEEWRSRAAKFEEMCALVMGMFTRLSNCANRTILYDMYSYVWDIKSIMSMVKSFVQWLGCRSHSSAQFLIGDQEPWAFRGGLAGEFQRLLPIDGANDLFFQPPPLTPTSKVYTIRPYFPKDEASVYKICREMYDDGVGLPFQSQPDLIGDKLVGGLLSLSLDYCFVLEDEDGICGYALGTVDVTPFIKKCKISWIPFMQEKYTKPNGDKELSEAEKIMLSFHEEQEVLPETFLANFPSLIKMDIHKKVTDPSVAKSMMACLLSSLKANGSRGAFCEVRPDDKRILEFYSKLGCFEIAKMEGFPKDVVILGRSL
Data set [1] in a line: Apparent permeability (Papp), bi-directional transport in LLC-PK1 cells. The class given is in vitro ADME. To be noted: pig, 1 μM test compound, t=3 h, average of A to B and B to A. Here is the method:
Assay for Determination of Apparent Permeability (Papp)
Bi-directional transport was evaluated in LLC-PK1 cells in order to determine apparent permeability (Papp). LLC-PK1 cells can form a tight monolayer and therefore can be used to assess vectorial transport of compounds from basolateral to apical (B→A) and from apical to basolateral (A→B).
To determine Papp, LLC-PK1 cells were cultured in 96-well transwell culture plates (Millipore). Solutions containing the test compounds (1 μM) were prepared in Hank's Balanced Salt Solution with 10 mM HEPES. Substrate solution (150 μL) was added to either the apical (A) or the basolateral (B) compartment of the culture plate, and buffer (150 μL) was added to the compartment opposite to that containing the compound. At t=3 h, 50 μL samples were removed from both sides of monolayers dosed with test compound and placed in 96 well plates, scintillant (200 μL) or internal standard (100 μL labetolol 1 μM) was added to the samples and concentration was determined by liquid scintillation counting in a MicroBeta Wallac Trilux scintillation counter (Perkin Elmer Life Sciences, Boston, Mass.) or by LCMS/MS (Applied Biosystems SCIEX API 5000 triple quadruple mass spectrometer). […]
The apparent permeability, Papp, was calculated by the following formula for samples taken at t=3 h:
[formula] […] Papp was expressed as 10^−6 cm/s. […]

Description for human O-GlcNAcase: Assay for Determination of KI Values for Inhibition of O-GlcNAcase Activity
Experimental Procedure for Kinetic Analyses:
Enzymatic reactions were carried out in a reaction containing 50 mM NaH2PO4, 100 mM NaCl and 0.1% BSA (pH 7.0) using 2 mM 4-Methylumbelliferyl N-acetyl-β-D-glucosaminide dihydrate (Sigma M2133) dissolved in ddH2O, as a substrate. The amount of purified human O-GlcNAcase enzyme used in the reaction was 0.7 nM. Test compound of varying concentrations was added to the enzyme prior to initiation of the reaction. The reaction was performed at room temperature in a 96-well plate and was initiated with the addition of substrate. […] The slope of product production was determined for each concentration of compound tested and plotted, using standard curve fitting algorithms for sigmoidal dose response curves. The values for a four parameter logistic curve fit of the data were determined.

Turning to `CCNC1=N[C@@H]2[C@@H](O)[C@H](O)[C@@H](CO)S[C@@H]2O1` [Example 1, (3aS,5R,6S,7R,7aR)-2-(ethylamino)-5-(hydroxymethyl)-5,6,7,7a-tetrahydro 3aH-thiopyrano[3,2-d]oxazole-6,7-diol], the Ki on human O-GlcNAcase was found to be 3 nM.
Regarding `CCNC1=N[C@H]2[C@@H](S1)S[C@H](CO)[C@@H](O)[C@@H]2O` [Example 2, (3aR,5R,6S,7R,7aR)-2-(ethylamino)-5-(hydroxymethyl)-5,6,7,7a-tetrahydro-3aH-thiopyrano[3,2-d]thiazole-6,7-diol], the Ki at human O-GlcNAcase came to 3 nM. The same compound had a half-maximal effective concentration (EC50) at O-GlcNAcase of 139 nM. For the same compound, the Papp at 3 h, 1 μM in data set [1] came out at 3.7 ×10⁻⁶ cm/s.
Regarding `CCCNC1=N[C@H]2[C@@H](S1)S[C@H](CO)[C@@H](O)[C@@H]2O` [Example 3, (3aR,5R,6S,7R,7aR)-5-(hydroxymethyl)-2-(propylamino)-5,6,7,7a-tetrahydro-3aH-thiopyrano[3,2-d]thiazole-6,7-diol], the Ki at human O-GlcNAcase amounted to 1.4 nM. On O-GlcNAcase, the 50% effective concentration (EC50) is 29 nM.
On to `CNC1=N[C@H]2[C@@H](S1)S[C@H](CO)[C@@H](O)[C@@H]2O` [Example 4, (3aR,5R,6S,7R,7aR)-5-(hydroxymethyl)-2-(methylamino)-5,6,7,7a-tetrahydro-3aH-thiopyrano[3,2-d]thiazole-6,7-diol], for which, on human O-GlcNAcase, the Ki turned out to be 0.11 nM. Besides, a half-maximal response at O-GlcNAcase (EC50) required 3 nM.
For `CCNC1=N[C@H]2[C@@H](S1)S[C@H](C(F)F)[C@@H](O)[C@@H]2O` [Example 5, (3aR,5S,6S,7R,7aR)-5-(difluoromethyl)-2-(ethylamino)-5,6,7,7a-tetrahydro-3aH-thiopyrano[3,2-d]thiazole-6,7-diol] the same measures were 22 nM and 349 nM.
`CCNC1=N[C@@H]2[C@@H](O)[C@H](O)[C@@H](CO)O[C@@H]2S1` [N/A, (3 aR,5R,6S,7R,7aR)-2-(ethylamino)-5-(hydroxymethyl)-5,6,7,7a-tetrahydro-3aH-pyrano[3,2-d]thiazole-6,7-diol, reference compound]: in data set [1], the Papp at 3 h, 1 μM is under 1 ×10⁻⁶ cm/s.
